Measurements: US20230085307A1, “PYRIDAZINONE COMPOUND AND HERBICIDE” (NISSAN CHEMICAL CORPORATION, priority 2019, published 2023)

Assays:
wild oat = assay: Test Example 5: herbicidal effect by foliage application, plastic box (Table 20, symbol I); format: in vivo, wild oat (Avena fatua); details: foliage application, 320 g/ha, three weeks after application
In short: (§1)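 Sow seeds spot-wise in sterilized diluvial soil; cover with ~1.5 cm soil. Grow 14 days in greenhouse, 25° C. to 30° C. Spray foliage with emulsion diluted to predetermined amount. Rate effect after 3 weeks.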

barnyard grass [1] = assay: Test Example 5: herbicidal effect by foliage application, plastic box (Table 20, symbol H); format: in vivo, barnyard grass (Echinochloa crus-galli); details: foliage application, 320 g/ha, three weeks after application
In short: as §1

corn = assay: Test Example 4: effect on crop by soil treatment (Table 19, symbol c); format: in vivo; details: amount of applied herbicide 320 g/ha
In short: (§2)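 Applied as a water-diluted emulsion, the compound was sprayed onto soil covering newly sown seeds. Evaluation came three weeks after application, in a greenhouse held at 25° C. to 30° C.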

Chinese sprangletop = assay: Test Example 3: herbicidal effect by foliage application, Wagner pot (Table 18, symbol D); format: in vivo, chinese sprangletop (Leptochloa chinensis); details: 320 g/ha
In short: (§3)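 Plants were sown in alluvial soil held under 0.1–0.5 cm standing water and grown 14 days in a greenhouse at 25–30 °C. An emulsifiable formulation, water-diluted to the set dose, was then sprayed onto the foliage, and effects were scored three weeks later using previously defined criteria.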

beet = assay: Test Example 5: effect on crop by foliage application, plastic box (Table 20, symbol f); format: in vivo; details: 320 g/ha, three weeks after application
In short: as §1

blackgrass [2] = assay: Test Example 5: herbicidal effect by foliage application, plastic box (Table 20, symbol J); format: in vivo, blackgrass (Alopecurus myosuroides); details: foliage application, 320 g/ha, three weeks after application
In short: as §1

lambsquarters [3] = assay: Test Example 4: herbicidal effect by soil treatment (Table 19, symbol O); format: in vivo, lambsquarters (Chenopodium album); details: amount of applied herbicide 320 g/ha
In short: as §2

directly sowed rice = assay: Test Example 3: effect on crop by foliage application, Wagner pot (Table 18, symbol b); format: in vivo; details: 320 g/ha
Procedure: [Test Example 3] Herbicidal Effect Test by Foliage Application After alluvial soil was placed into 1/10000 are of Wagner pot, water was poured and mixed to form a submerged condition having a water depth of 0.1 cm to 0.5 cm. Seeds of barnyard grass, Chinese sprangletop, rice flat sedge, and rice were sowed and the pot was placed in a greenhouse at 25° C. to 30° C. for growth of the plants. After 14-day growth of the plants, the emulsion agent of the compound of the present invention prepared according to Formulation Example 2 was diluted with water so as to achieve a predetermined herbicide amount, and the diluted emulsion agent was uniformly applied to a foliage part with a small-sized spray. Three weeks after the herbicide application, the effect of the herbicide on each plant was evaluated according to the criteria of Test Example 1.

Italian ryegrass [4] = assay: Test Example 4: herbicidal effect by soil treatment (Table 19, symbol K); format: in vivo, Italian ryegrass (Lolium multiflorum); details: amount of applied herbicide 320 g/ha
In short: as §2

barnyard grass [5] = assay: Test Example 3: herbicidal effect by foliage application, Wagner pot (Table 18, symbol H); format: in vivo, barnyard grass (Echinochloa crus-galli); details: 320 g/ha
In short: as §3

velvetleaf = assay: Test Example 5: herbicidal effect by foliage application, plastic box (Table 20, symbol M); format: in vivo, velvetleaf (Abutilon theophrasti); details: foliage application, 320 g/ha, three weeks after application
In short: as §1

persian speedwell = assay: Test Example 5: herbicidal effect by foliage application, plastic box (Table 20, symbol R); format: in vivo, Persian speedwell (Veronica persica); details: foliage application, 320 g/ha, three weeks after application
In short: as §1

lambsquarters [6] = assay: Test Example 5: herbicidal effect by foliage application, plastic box (Table 20, symbol O); format: in vivo, lambsquarters (Chenopodium album); details: foliage application, 320 g/ha, three weeks after application
In short: as §1

rice flat sedge = assay: Test Example 3: herbicidal effect by foliage application, Wagner pot (Table 18, symbol E); format: in vivo, rice flat sedge (Cyperus iria); details: 320 g/ha
In short: as §3

Italian ryegrass [7] = assay: Test Example 5: herbicidal effect by foliage application, plastic box (Table 20, symbol K); format: in vivo, Italian ryegrass (Lolium multiflorum); details: foliage application, 320 g/ha, three weeks after application
In short: as §1

blackgrass [8] = assay: Test Example 4: herbicidal effect by soil treatment (Table 19, symbol J); format: in vivo, blackgrass (Alopecurus myosuroides); details: amount of applied herbicide 320 g/ha
In short: as §2

green foxtail = assay: Test Example 4: herbicidal effect by soil treatment (Table 19, symbol G); format: in vivo, green foxtail (Setaria viridis); details: amount of applied herbicide 320 g/ha
In short: as §2

windgrass = assay: Test Example 5: herbicidal effect by foliage application, plastic box (Table 20, symbol L); format: in vivo, windgrass (Apera spica-venti); details: foliage application, 320 g/ha, three weeks after application
In short: as §1

redroot pigweed = assay: Test Example 5: herbicidal effect by foliage application, plastic box (Table 20, symbol N); format: in vivo, redroot pigweed (Amaranthus retroflexus); details: foliage application, 320 g/ha, three weeks after application
In short: as §1

For `COc1ccc2c(-c3c(O)c(N)nn(C)c3=O)c(-c3ccccc3OC)sc2c1` [Compound No. 3-087, 6-amino-5-hydroxy-4-(6-methoxy-2-(2-methoxyphenyl)benzo[b]thiophen-3-yl)-2-methyl pyridazin-3(2H)-one], the “I: wild oat, herbicidal effect grade” value (wild oat) was 0 (Herbicidal rate of 5% or less (almost no effect)), the “H: barnyard grass, herbicidal effect grade” value (barnyard grass [1]) was 3 (Herbicidal rate of 40% or more and less than 70%) and the “c: corn, effect on crop grade” value (corn) was 0 (Herbicidal rate of 5% or less (almost no effect)). The “herbicidal effect on Chinese sprangletop (D)” value (Chinese sprangletop) was 0 (Herbicidal rate of 5% or less (almost no effect)), the “f: beet, effect on crop grade” value (beet) was 4 (Herbicidal rate of 70% or more and less than 90%) and the “J: blackgrass, herbicidal effect grade” value (blackgrass [2]) was 4 (Herbicidal rate of 70% or more and less than 90%). The “O: lambsquarters, herbicidal effect grade” value (lambsquarters [3]) was 0 (Herbicidal rate of 5% or less (almost no effect)), the melting point was 286 to 288 °C and the “effect on directly sowed rice (b)” value (directly sowed rice) was 1 (Herbicidal rate of 5% or more and less than 20%). The “K: Italian ryegrass, herbicidal effect grade” value (Italian ryegrass [4]) was 0 (Herbicidal rate of 5% or less (almost no effect)), the “herbicidal effect on barnyard grass (H)” value (barnyard grass [5]) was 4 (Herbicidal rate of 70% or more and less than 90%) and the “M: velvetleaf, herbicidal effect grade” value (velvetleaf) was 0 (Herbicidal rate of 5% or less (almost no effect)). For the same compound, the “R: persian speedwell, herbicidal effect grade” value (persian speedwell) was 4 (Herbicidal rate of 70% or more and less than 90%), the “O: lambsquarters, herbicidal effect grade” value (lambsquarters [6]) was 0 (Herbicidal rate of 5% or less (almost no effect)) and the “herbicidal effect on rice flat sedge (E)” value (rice flat sedge) was 3 (Herbicidal rate of 40% or more and less than 70%). The “K: Italian ryegrass, herbicidal effect grade” value (Italian ryegrass [7]) was 1 (Herbicidal rate of 5% or more and less than 20%), the “J: blackgrass, herbicidal effect grade” value (blackgrass [8]) was 0 (Herbicidal rate of 5% or less (almost no effect)) and the “G: green foxtail, herbicidal effect grade” value (green foxtail) was 0 (Herbicidal rate of 5% or less (almost no effect)). For the same compound, the “L: windgrass, herbicidal effect grade” value (windgrass) was 5 (Herbicidal rate of 90% or more (almost completely withered)) and the “N: redroot pigweed, herbicidal effect grade” value (redroot pigweed) was 1 (Herbicidal rate of 5% or more and less than 20%).
